Test results as given in PMC11735596, “Sulfoquinovosyl diacylglycerol, a component of Holy Basil Ocimum tenuiflorum, inhibits the activity of the SARS-CoV-2 main protease and viral replication in vitro” (Journal of Natural Medicines, 2024).
Several values for one entry are separate records, joined by “and”; a condition that tells them apart may be missing. Equal entries are not always repeated.

How the values were obtained:
[1] = tested on: VeroE6/TMPRSS2 cells
[2] = in vitro; conditions: African green monkey
[3] = tested on: SARS-CoV-2 (WK-521 strain); assay: Anti-SARS-CoV-2 assay in infected VeroE6/TMPRSS2 cells (tetrazolium dye method); conditions: for Protection of infected cells from virus-induced cell death (in words): MOI 0.002, 3 days
[4] = tested on: SARS-CoV-2 spike S1 and ACE2; set-up: method as in PMID 34677731; conditions: cited from earlier work

CC/C=C\C/C=C\C/C=C\CCCCCCCC(=O)OC[C@H](CO[C@H]1O[C@H](CS(=O)(=O)O)[C@@H](O)[C@H](O)[C@H]1O)OC(=O)CCCCCCC/C=C\C/C=C\C/C=C\CC [Compound 1, 1,2-di-(9Z,12Z,15Z-octadecatrienoyl)-3-(6′-sulfo-α-D-quinovosyl)-sn-glycerol]
Cytotoxicity (in words) [1]: did not show apparent cytotoxicity | CC50 [2]: > 100 µM | Protection of infected cells from virus-induced cell death (in words) [3]: dose-dependent protection | EC50 ([3]; read-out: EC50, suppression of SARS-CoV-2 replication, MOI 0.002, 3 days): 51.2 µM and 51 µM

CC/C=C\C/C=C\C/C=C\CCCCCCCC(=O)OC[C@H](CO[C@@H]1O[C@H](CO[C@H]2O[C@H](CO)[C@H](O)[C@H](O)[C@H]2O)[C@H](O)[C@H](O)[C@H]1O)OC(=O)CCCCCCC/C=C\C/C=C\C/C=C\CC [Compound 2, 1,2-di-(9Z,12Z,15Z-octadecatrienoyl)-3-O-(α-D-galactosyl-1-6-β-D-galactosyl)-sn-glycerol]
Protection of infected cells from virus-induced cell death (in words) [3]: inhibited cell death caused by SARS-CoV-2 in a concentration-dependent manner

CC/C=C\C/C=C\C/C=C\CCCCCCCC(=O)OC [Compound 5, Methyl linolenate, reference compound]
Protection of infected cells from virus-induced cell death (in words) [3]: inhibited cell death caused by SARS-CoV-2 in a concentration-dependent manner

C=CCc1ccc(O)c(OC)c1 [eugenol]
Effect on interaction between SARS-CoV-2 spike S1 and ACE2 (in words) [4]: inhibited the interaction between SARS-CoV-2 spike S1 and ACE2
